In paper PMC5218480 (PLoS ONE, 2017):

Test system: MV-4-11 cells
Assay: Gene expression microarray analysis (Affymetrix PrimeView) and GSEA
Format: cell-based, human
Parameters: RFU PODN (11730768_x_at) / Fold change /veh PODN (11730768_x_at) / RFU LINC00158 (11744669_a_at) / Fold change /veh LINC00158 (11744669_a_at) / RFU DUSP10 (11751237_a_at) / Fold change /veh DUSP10 (11751237_a_at) / RFU ID3 (11757404_x_at) / Fold change /veh ID3 (11757404_x_at) / RFU PLEKHG5 (11737974_s_at) / Fold change /veh PLEKHG5 (11737974_s_at) / RFU LRRC4B (11730491_at) / Fold change /veh LRRC4B (11730491_at) / RFU GIMAP4 (11747438_a_at) / Fold change /veh GIMAP4 (11747438_a_at) / RFU KRT8 (11758183_x_at) / Fold change /veh KRT8 (11758183_x_at) / RFU CNN1 (11734310_a_at) / Fold change /veh CNN1 (11734310_a_at) / RFU VPS37D (11726825_at) / Fold change /veh VPS37D (11726825_at) / RFU C10orf10 (11716522_x_at) / Fold change /veh C10orf10 (11716522_x_at) / RFU KIR2DL2 /// KIR2DL4 /// KIR2DL5A /// KIR2DL5B /// KIR2DS1 /// KIR2DS2 /// KIR2DS3 /// KIR2DS4 /// KIR3DL3 /// KIR3DL3 /// KIR3DS1 (11738374_at) / Fold change /veh KIR2DL2 /// KIR2DL4 /// KIR2DL5A /// KIR2DL5B /// KIR2DS1 /// KIR2DS2 /// KIR2DS3 /// KIR2DS4 /// KIR3DL3 /// KIR3DL3 /// KIR3DS1 (11738374_at) / RFU C1QL1 (11718748_at) / Fold change /veh C1QL1 (11718748_at) / RFU TMPRSS4 (11747572_a_at) / Fold change /veh TMPRSS4 (11747572_a_at) / RFU HAMP (11756126_x_at) / Fold change /veh HAMP (11756126_x_at) / RFU RNFT2 (11725882_a_at) / Fold change /veh RNFT2 (11725882_a_at) / RFU NR4A2 (11747474_a_at) / Fold change /veh NR4A2 (11747474_a_at) / RFU ABCC12 (11746883_a_at) / Fold change /veh ABCC12 (11746883_a_at) / RFU TMEM136 (11760407_x_at) / Fold change /veh TMEM136 (11760407_x_at) / RFU CLDN22 /// WWC2 (11732394_at) / Fold change /veh CLDN22 /// WWC2 (11732394_at) / RFU HLA-DPB1 (11760878_x_at) / Fold change /veh HLA-DPB1 (11760878_x_at) / RFU SPINT1 (11716480_a_at) / Fold change /veh SPINT1 (11716480_a_at) / RFU GAP43 (11754022_s_at) / Fold change /veh GAP43 (11754022_s_at) / RFU A4GNT (11735810_at) / Fold change /veh A4GNT (11735810_at) / RFU PRB3 (11715151_x_at) / Fold change /veh PRB3 (11715151_x_at) / RFU TUBB4B (11761932_at) / Fold change /veh TUBB4B (11761932_at) / RFU CAPN14 (11732068_a_at) / Fold change /veh CAPN14 (11732068_a_at) / RFU TMCC2 (11721928_a_at) / Fold change /veh TMCC2 (11721928_a_at) / RFU IRGQ (11745062_a_at) / Fold change /veh IRGQ (11745062_a_at) / RFU FAM174B (11720279_a_at) / Fold change /veh FAM174B (11720279_a_at) / RFU TMPRSS4 (11748680_a_at) / Fold change /veh TMPRSS4 (11748680_a_at) / RFU FAM212B (11763350_a_at) / Fold change /veh FAM212B (11763350_a_at) / RFU PLEKHG5 (11743358_a_at) / Fold change /veh PLEKHG5 (11743358_a_at) / RFU ZSCAN30 (11745921_a_at) / Fold change /veh ZSCAN30 (11745921_a_at) / RFU CMKLR1 (11741424_a_at) / Fold change /veh CMKLR1 (11741424_a_at) / RFU LOC101060620 /// MAPK8IP1 (11723275_at) / Fold change /veh LOC101060620 /// MAPK8IP1 (11723275_at) / RFU SPTSSB (11747773_x_at) / Fold change /veh SPTSSB (11747773_x_at) / RFU PRSS12 (11739890_at) / Fold change /veh PRSS12 (11739890_at) / RFU BIN1 (11741810_x_at) / Fold change /veh BIN1 (11741810_x_at) / RFU WNT11 (11732464_a_at) / Fold change /veh WNT11 (11732464_a_at) / RFU C10orf10 (11716521_a_at) / Fold change /veh C10orf10 (11716521_a_at) / RFU C5orf56 (11738089_at) / Fold change /veh C5orf56 (11738089_at) / RFU CYB561 (11721691_x_at) / Fold change /veh CYB561 (11721691_x_at) / RFU ANKRD19P (11752326_a_at) / Fold change /veh ANKRD19P (11752326_a_at) / RFU OR2T12 /// OR2T33 /// OR2T8 (11738714_s_at) / Fold change /veh OR2T12 /// OR2T33 /// OR2T8 (11738714_s_at) / RFU VCAN (11748164_a_at) / Fold change /veh VCAN (11748164_a_at) / RFU JSRP1 (11732532_at) / Fold change /veh JSRP1 (11732532_at) / RFU KRTAP10-11 (11738290_x_at) / Fold change /veh KRTAP10-11 (11738290_x_at) / RFU MYO3A (11730013_a_at) / Fold change /veh MYO3A (11730013_a_at) / RFU EBF3 (11725865_a_at) / Fold change /veh EBF3 (11725865_a_at) / RFU CAMK2N1 (11719241_x_at) / Fold change /veh CAMK2N1 (11719241_x_at) / RFU C5orf56 (11738088_a_at) / Fold change /veh C5orf56 (11738088_a_at) / RFU OLFML3 (11715873_a_at) / Fold change /veh OLFML3 (11715873_a_at) / RFU LOC100653217 /// NTM (11731650_a_at) / Fold change /veh LOC100653217 /// NTM (11731650_a_at) / RFU MAPK11 (11762145_a_at) / Fold change /veh MAPK11 (11762145_a_at) / RFU FIZ1 (11724087_x_at) / Fold change /veh FIZ1 (11724087_x_at) / RFU OASL (11726364_x_at) / Fold change /veh OASL (11726364_x_at) / RFU SOX15 (11748057_x_at) / Fold change /veh SOX15 (11748057_x_at) / RFU CD79A (11719716_a_at) / Fold change /veh CD79A (11719716_a_at) / RFU HIST1H1D (11736915_at) / Fold change /veh HIST1H1D (11736915_at) / RFU CASKIN2 (11723855_a_at) / Fold change /veh CASKIN2 (11723855_a_at) / RFU LOC730098 (11760151_x_at) / Fold change /veh LOC730098 (11760151_x_at) / RFU OR4N2 (11742367_at) / Fold change /veh OR4N2 (11742367_at) / RFU PRRT2 (11749266_a_at) / Fold change /veh PRRT2 (11749266_a_at) / RFU SNX32 (11753110_a_at) / Fold change /veh SNX32 (11753110_a_at) / RFU CDHR5 (11726645_a_at) / Fold change /veh CDHR5 (11726645_a_at) / RFU RCAN1 (11760418_a_at) / Fold change /veh RCAN1 (11760418_a_at) / RFU FAM167A (11723789_a_at) / Fold change /veh FAM167A (11723789_a_at) / RFU FAM26E (11764081_at) / Fold change /veh FAM26E (11764081_at) / RFU ISYNA1 (11749810_s_at) / Fold change /veh ISYNA1 (11749810_s_at) / RFU ACY1 (11761880_at) / Fold change /veh ACY1 (11761880_at) / RFU 11764098_at / Fold change /veh 11764098_at / RFU SAMD14 (11745864_x_at) / Fold change /veh SAMD14 (11745864_x_at) / RFU NPB (11741838_a_at) / Fold change /veh NPB (11741838_a_at) / RFU TMPRSS6 (11731388_a_at) / Fold change /veh TMPRSS6 (11731388_a_at) / RFU KRTAP10-2 (11738614_at) / Fold change /veh KRTAP10-2 (11738614_at) / RFU ARHGAP8 /// PRR5-ARHGAP8 (11727945_x_at) / Fold change /veh ARHGAP8 /// PRR5-ARHGAP8 (11727945_x_at) / RFU KRTAP5-7 /// NADSYN1 (11734609_at) / Fold change /veh KRTAP5-7 /// NADSYN1 (11734609_at) / RFU RASL12 (11751679_a_at) / Fold change /veh RASL12 (11751679_a_at) / RFU CDKN2B (11736163_a_at) / Fold change /veh CDKN2B (11736163_a_at) / RFU PRF1 (11729649_at) / Fold change /veh PRF1 (11729649_at) / RFU, ZNF638 /// ZNF638-IT1 / Fold change vs veh, ZNF638 /// ZNF638-IT1 / RFU, PANK3 / Fold change vs veh, PANK3 / RFU, SH3YL1 / Fold change vs veh, SH3YL1 / RFU, ZEB2 / Fold change vs veh, ZEB2 / RFU, NRIP1 / Fold change vs veh, NRIP1 / RFU, PTTG1IP / Fold change vs veh, PTTG1IP / RFU, CAPN2 / Fold change vs veh, CAPN2 / RFU, MED14 / Fold change vs veh, MED14 / RFU, SNORA58 / Fold change vs veh, SNORA58 / RFU, C1orf63 / Fold change vs veh, C1orf63 / RFU, LRRFIP1 / Fold change vs veh, LRRFIP1 / RFU, NDUFAF7 / Fold change vs veh, NDUFAF7 / RFU, SLC12A2 / Fold change vs veh, SLC12A2 / RFU, IBTK / Fold change vs veh, IBTK / RFU, ESF1 / Fold change vs veh, ESF1 / Fold change vs veh, TMEM50B / RFU, TAOK1 / Fold change vs veh, TAOK1 / RFU, ACBD3 / Fold change vs veh, ACBD3 / RFU, TMA16 / Fold change vs veh, TMA16 / RFU, RWDD3 / Fold change vs veh, RWDD3 / RFU, BCAT1 / Fold change vs veh, BCAT1 / RFU, EDEM3 / Fold change vs veh, EDEM3 / RFU, TMEM33 / Fold change vs veh, TMEM33 / RFU, WDR75 / Fold change vs veh, WDR75 / RFU, AHCTF1 / Fold change vs veh, AHCTF1 / RFU, TFRC / Fold change vs veh, TFRC / RFU, ZDHHC17 / Fold change vs veh, ZDHHC17 / RFU, NOM1 / Fold change vs veh, NOM1 / RFU, ARL8B / Fold change vs veh, ARL8B / RFU, ZBTB11 / Fold change vs veh, ZBTB11 / RFU, TAMM41 / Fold change vs veh, TAMM41 / RFU, KIAA1704 /// LOC100996395 / Fold change vs veh, KIAA1704 /// LOC100996395 / RFU, ING1 / Fold change vs veh, ING1 / RFU, TRMT61B / Fold change vs veh, TRMT61B / RFU, FUBP3 / Fold change vs veh, FUBP3 / RFU, TP53 / Fold change vs veh, TP53 / RFU, TNKS2 / Fold change vs veh, TNKS2 / RFU, ZFP14 / Fold change vs veh, ZFP14 / RFU, ACTR2 / Fold change vs veh, ACTR2 / RFU, PPP3R1 / Fold change vs veh, PPP3R1 / RFU, PIK3R1 / Fold change vs veh, PIK3R1 / RFU, HNRNPA1 / Fold change vs veh, HNRNPA1 / RFU, RNF170 / Fold change vs veh, RNF170 / RFU, ZNF28 / Fold change vs veh, ZNF28 / RFU, RNGTT / Fold change vs veh, RNGTT / RFU, OGT / Fold change vs veh, OGT / RFU, BRD1 / Fold change vs veh, BRD1 / RFU, MARS / Fold change vs veh, MARS / RFU, ZNF655 / Fold change vs veh, ZNF655 / RFU, FAHD1 / Fold change vs veh, FAHD1 / RFU, BDP1 / Fold change vs veh, BDP1 / RFU, LRRCC1 / Fold change vs veh, LRRCC1 / RFU, ARID1A / Fold change vs veh, ARID1A / RFU, ZNF146 / Fold change vs veh, ZNF146 / RFU, ZNF330 / Fold change vs veh, ZNF330 / RFU, GPN3 / Fold change vs veh, GPN3 / RFU, C9orf123 / Fold change vs veh, C9orf123 / RFU, N4BP2L2 / Fold change vs veh, N4BP2L2 / RFU, ARFIP1 / Fold change vs veh, ARFIP1 / RFU, FAM179B / Fold change vs veh, FAM179B / RFU, BCL10 / Fold change vs veh, BCL10 / RFU, UHRF1BP1L / Fold change vs veh, UHRF1BP1L / RFU, BET1 / Fold change vs veh, BET1 / RFU, CNOT2 / Fold change vs veh, CNOT2 / RFU, ZNF268 / Fold change vs veh, ZNF268 / Fold change vs veh, ZNF507 / RFU, DGCR2 / Fold change vs veh, DGCR2 / RFU, WDSUB1 / Fold change vs veh, WDSUB1 / Fold change vs veh, HSP90B1 /// MIR3652 / RFU, ADSS / Fold change vs veh, ADSS / RFU, GK / Fold change vs veh, GK / RFU, ZNF148 / Fold change vs veh, ZNF148 / RFU, TAF9 / Fold change vs veh, TAF9 / RFU, SLC1A5 / Fold change vs veh, SLC1A5 / RFU, SLMO2 / Fold change vs veh, SLMO2 / RFU, ABCC4 / Fold change vs veh, ABCC4 / RFU, LOC101060439 /// RAP1B / Fold change vs veh, LOC101060439 /// RAP1B / RFU, RFX7 / Fold change vs veh, RFX7 / RFU, GTPBP10 / Fold change vs veh, GTPBP10 / RFU, CNEP1R1 / Fold change vs veh, CNEP1R1 / RFU, BIVM-ERCC5 /// ERCC5 / Fold change vs veh, BIVM-ERCC5 /// ERCC5 / RFU, ILF3 / Fold change vs veh, ILF3 / RFU 11762660_at / Fold change /veh 11762660_at / RFU VCAN (11757783_s_at) / Fold change /veh VCAN (11757783_s_at) / RFU DDX43 (11728927_at) / Fold change /veh DDX43 (11728927_at) / RFU KRT8 (11758188_x_at) / Fold change /veh KRT8 (11758188_x_at) / RFU NKD1 (11759106_at) / Fold change /veh NKD1 (11759106_at) / RFU SRD5A1 (11742802_a_at) / Fold change /veh SRD5A1 (11742802_a_at) / RFU TPSAB1 /// TPSB2 (11721975_s_at) / Fold change /veh TPSAB1 /// TPSB2 (11721975_s_at) / RFU GSTM3 (11746129_a_at) / Fold change /veh GSTM3 (11746129_a_at) / RFU IL23R (11737362_x_at) / Fold change /veh IL23R (11737362_x_at) / RFU TMEM51 (11727254_a_at) / Fold change /veh TMEM51 (11727254_a_at) / RFU PIWIL2 (11732686_x_at) / Fold change /veh PIWIL2 (11732686_x_at) / RFU ORM1 (11744905_x_at) / Fold change /veh ORM1 (11744905_x_at) / RFU CCDC152 (11743942_at) / Fold change /veh CCDC152 (11743942_at) / RFU ECM1 (11717891_a_at) / Fold change /veh ECM1 (11717891_a_at) / RFU IL23R (11748794_a_at) / Fold change /veh IL23R (11748794_a_at) / RFU TNFAIP8L3 (11732012_x_at) / Fold change /veh TNFAIP8L3 (11732012_x_at) / RFU MBOAT4 (11741988_at) / Fold change /veh MBOAT4 (11741988_at) / RFU 11764193_at / Fold change /veh 11764193_at / RFU TMEM53 (11763286_at) / Fold change /veh TMEM53 (11763286_at) / RFU MAGEB2 (11727129_at) / Fold change /veh MAGEB2 (11727129_at) / RFU TMEM200A (11744735_a_at) / Fold change /veh TMEM200A (11744735_a_at) / RFU CCDC152 (11751479_a_at) / Fold change /veh CCDC152 (11751479_a_at) / RFU FAM211A (11726209_a_at) / Fold change /veh FAM211A (11726209_a_at) / RFU RGS16 (11746705_a_at) / Fold change /veh RGS16 (11746705_a_at) / RFU VCAN (11755009_s_at) / Fold change /veh VCAN (11755009_s_at) / RFU RHOB (11743442_s_at) / Fold change /veh RHOB (11743442_s_at) / RFU RGS16 (11720943_a_at) / Fold change /veh RGS16 (11720943_a_at) / RFU RGS16 (11720944_at) / Fold change /veh RGS16 (11720944_at) / RFU, VPS4B / Fold change vs veh, VPS4B / RFU, CREB1 / Fold change vs veh, CREB1 / RFU, DNAJC13 / Fold change vs veh, DNAJC13 / RFU, GNAQ / Fold change vs veh, GNAQ / RFU, CDK5R1 / Fold change vs veh, CDK5R1 / RFU, ZRANB3 / Fold change vs veh, ZRANB3 / RFU, CUL4A / Fold change vs veh, CUL4A / RFU, CCNY / Fold change vs veh, CCNY / RFU, UFL1 / Fold change vs veh, UFL1 / RFU, COG3 / Fold change vs veh, COG3 / RFU, DIAPH2 / Fold change vs veh, DIAPH2 / RFU, SKA2 / Fold change vs veh, SKA2 / RFU, AFF3 / Fold change vs veh, AFF3 / RFU, LMF1 / Fold change vs veh, LMF1 / RFU, IPO11 / Fold change vs veh, IPO11 / RFU, DFFB / Fold change vs veh, DFFB / RFU, FOXP1 / Fold change vs veh, FOXP1 / RFU, CARD8 / Fold change vs veh, CARD8 / RFU, STRN3 / Fold change vs veh, STRN3 / RFU, ADK / Fold change vs veh, ADK / RFU, RASSF2 / Fold change vs veh, RASSF2 / RFU, WIPF1 / Fold change vs veh, WIPF1 / RFU, LARP1B / Fold change vs veh, LARP1B / RFU, RASA1 / Fold change vs veh, RASA1 / RFU, RB1 / Fold change vs veh, RB1 / RFU, PPFIA1 / Fold change vs veh, PPFIA1 / RFU, MAT2A / Fold change vs veh, MAT2A / RFU, CCT5 / Fold change vs veh, CCT5 / RFU, WDR92 / Fold change vs veh, WDR92 / RFU, CUX1 / Fold change vs veh, CUX1 / RFU, TTC7A / Fold change vs veh, TTC7A / RFU, TMEM135 / Fold change vs veh, TMEM135 / RFU, DEPTOR / Fold change vs veh, DEPTOR / RFU, CPM / Fold change vs veh, CPM / RFU, DNAJB6 / Fold change vs veh, DNAJB6 / RFU, CACNA2D3 / Fold change vs veh, CACNA2D3 / RFU, DTX4 / Fold change vs veh, DTX4 / RFU, TFCP2 / Fold change vs veh, TFCP2 / RFU, GMCL1 /// GMCL1P1 / Fold change vs veh, GMCL1 /// GMCL1P1 / RFU, AEBP2 / Fold change vs veh, AEBP2 / RFU, SNHG1 /// SNORD22 /// SNORD25 /// SNORD26 /// SNORD27 /// SNORD28 /// SNORD29 /// SNORD31 / Fold change vs veh, SNHG1 /// SNORD22 /// SNORD25 /// SNORD26 /// SNORD27 /// SNORD28 /// SNORD29 /// SNORD31 / Fold change (Aza/veh), C12orf56 (ProbeSet 11735607_a_at) / Fold change (ACY-1035/veh), C12orf56 (ProbeSet 11735607_a_at) / Fold change (Aza/veh), FGFR1OP (ProbeSet 11751329_s_at) / Fold change (ACY-1035/veh), FGFR1OP (ProbeSet 11751329_s_at) / Fold change (Aza/veh), VPS36 (ProbeSet 11739960_a_at) / Fold change (ACY-1035/veh), VPS36 (ProbeSet 11739960_a_at) / RFU SYPL1 (11715823_x_at) / Fold change /veh SYPL1 (11715823_x_at) / RFU IGFBP7 (11715501_s_at) / Fold change /veh IGFBP7 (11715501_s_at) / RFU REEP3 (11722064_at) / Fold change /veh REEP3 (11722064_at) / RFU IGLL1 (11728026_x_at) / Fold change /veh IGLL1 (11728026_x_at): dose or concentration left out as unconfirmed
Conditions: ProbeSet 11745260_x_at; LIST B

SMILES: Nc1ccc(-c2cccs2)cc1NC(=O)c1ccc2c(c1)cc(C1CC1)n2CCN1CCOCC1 [ACY-1035]
- RFU, SLC12A2: 27.90 RFU
